Measurements from paper PMC3933693, “Novel Inhibitors of Mitochondrial sn-Glycerol 3-phosphate Dehydrogenase” (PLoS ONE, 2014).

Key:
mGPDH = molecular target: T1, mGPDH (Rattus norvegicus, UniProt P35571); experiment: Superoxide/H2O2 production by mGPDH in isolated skeletal muscle mitochondria (Amplex UltraRed); format: biochemical; details: for IC50: Fig. 4 structure/activity microplate assay, 0.08–80 µM, estimated, means of two replicates, read-out: mGPDH H2O2 production IC50; for inhibition at 80 µM: read-out: mGPDH H2O2 production (% change at 80 μM)
T1 construct: Activity of mGPDH in frozen-thawed skeletal muscle mitochondria was measured; from tissue; host or cells: skeletal muscle mitochondria
T1 sequence (P35571 43-727): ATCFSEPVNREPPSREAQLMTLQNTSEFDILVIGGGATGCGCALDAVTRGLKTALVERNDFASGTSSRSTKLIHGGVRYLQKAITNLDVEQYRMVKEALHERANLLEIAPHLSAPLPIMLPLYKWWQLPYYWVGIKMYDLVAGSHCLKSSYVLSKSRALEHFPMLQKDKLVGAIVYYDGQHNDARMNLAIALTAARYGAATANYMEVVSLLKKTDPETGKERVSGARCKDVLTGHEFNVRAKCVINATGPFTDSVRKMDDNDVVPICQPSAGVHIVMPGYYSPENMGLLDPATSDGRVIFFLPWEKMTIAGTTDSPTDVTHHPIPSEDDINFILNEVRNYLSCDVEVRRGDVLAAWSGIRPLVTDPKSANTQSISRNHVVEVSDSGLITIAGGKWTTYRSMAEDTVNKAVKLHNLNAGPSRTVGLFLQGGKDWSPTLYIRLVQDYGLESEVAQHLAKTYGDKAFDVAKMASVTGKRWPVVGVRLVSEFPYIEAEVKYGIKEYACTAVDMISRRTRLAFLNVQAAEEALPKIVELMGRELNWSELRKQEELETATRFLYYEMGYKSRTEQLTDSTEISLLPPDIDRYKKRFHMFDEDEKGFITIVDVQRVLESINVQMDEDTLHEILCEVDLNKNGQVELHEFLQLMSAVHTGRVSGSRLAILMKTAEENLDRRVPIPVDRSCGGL

[1] = test system: flavin mononucleotide site of complex I (site IF) plus matrix NAD-linked dehydrogenases (site IF/DH); experiment: Site-specific H2O2 production from site IF/DH in skeletal muscle mitochondria; format: biochemical, rat; details: primary screen, ∼2.5 µM, average of duplicates
Procedure: (§1) Superoxide was measured as H2O2 after dismutation by endogenous or exogenous superoxide dismutase. Rates of total superoxide/H2O2 production were measured fluorimetrically using Amplex UltraRed in the presence of exogenous superoxide dismutase and horseradish peroxidase in a Varian Cary Eclipse fluorimeter as previously described. Rates of production from specific sites were determined as previously described using the following eight conditions: flavin mononucleotide site of complex I (site IF) plus matrix NAD-linked dehydrogenases (collectively "site IF/DH") with 5 mM glutamate, 5 mM malate, and 4 µM rotenone; ubiquinone-binding site of complex I (site IQ) with either 0.5 or 5 mM succinate; flavin site of complex II (site IIF) with either 15 µM palmitoylcarnitine, 2.5 µM antimycin A, and 2 µM myxothiazol or 0.5 mM succinate, 4 µM rotenone, 2.5 µM antimycin A, and 2 µM myxothiazol, [31]; mGPDH with 1.7 mM glycerol phosphate, 4 µM rotenone, 2.5 µM antimycin A, 2 µM myxothiazol, 1 mM malonate, and 250 nM free calcium; outer ubiquinone-binding site of complex III (site IIIQo) with either 0.5 or 5 mM succinate, 4 µM rotenone and 2.5 µM antimycin A [32]. Candidate small-molecule inhibitors were added prior to the start of measurements and H2O2 calibration curves were performed in the presence of tested compounds.
(§2) 3,200 compounds were tested initially at 2.5 µM (0.025% DMSO final) in duplicate on different plates against a panel of five distinct assays of site-specific superoxide/H2O2 production as described in the previous section with minor changes. […] Endpoint fluorescence was measured on a Perkin Elmer Victor V3 fluorescent plate reader. The fluorescence intensity of each well was normalized as % change from the average of eight DMSO controls on the same plate. Duplicate wells of each of four modulators of mitochondrial metabolism known to inhibit specific sites of superoxide/H2O2 production were included on each plate as positive controls and the resulting fluorescence levels set as −100% change from DMSO controls. Known inhibitors included 20 mM aspartate (for site IF/DH), 1 µM FCCP (for site IQ), 10 mM malonate (for site IIF), and 2 µM myxothiazol (for site IIIQo). The background fluorescence of the FCCP wells in the site IQ assay was used to normalize mGPDH plates run in parallel. To minimize position-dependent effects across each assay plate, Tukey’s two-way median polish was applied to fluorescence values after initial normalization, [36]. Tukey’s polish is an iterative subtraction of the median row and column values from each well’s given row or column. The procedure is repeated until sequential medians for each row and column are zero and positional gradients in fluorescence are eliminated.

[2] = test system: ubiquinone-binding site of complex I (site IQ); experiment: Site-specific H2O2 production from site IQ in skeletal muscle mitochondria; format: biochemical, rat; details: 5 mM succinate;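 also: H2O2 from superoxide detected by Amplex UltraRed fluorescence with added superoxide dismutase and horseradish peroxidase, endpoint read 30–40 min after substrate addition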
[3] = molecular target: T2, flavin site of complex II (site IIF) (Rattus norvegicus, UniProt Q920L2); experiment: Site-specific H2O2 production from site IIF in skeletal muscle mitochondria; format: biochemical; details: primary screen, ∼2.5 µM, average of duplicates; palmitoylcarnitine
T2 construct: from tissue; host or cells: skeletal muscle mitochondria
Procedure: as §1, §2

[4] = molecular target: T3, outer ubiquinone-binding site of complex III (site IIIQo) (Rattus norvegicus, UniProt P00159+P20788); experiment: Site-specific H2O2 production from site IIIQo in skeletal muscle mitochondria; format: biochemical; details: primary screen, ∼2.5 µM, average of duplicates; 5 mM succinate
T3 construct: from tissue; host or cells: skeletal muscle mitochondria
Procedure: as §1, §2

[5] = test system: skeletal muscle mitochondria; experiment: Mitochondrial membrane potential (ΔΨm, TMRM) powered by glutamate plus malate; format: biochemical, rat; details: for ΔΨm with Glu + Mal + Nig (% change at 80 μM) / ΔΨm with Glu + Mal (% change at 80 μM): 5 mM glutamate, 5 mM malate; for ΔΨm with Glu + Mal + Nig (% change at 80 μM): with nigericin; for ΔΨm with Glu + Mal (% change at 80 μM): without nigericin
[6] = test system: skeletal muscle mitochondria; experiment: Mitochondrial membrane potential (ΔΨm, TMRM) powered by glycerol phosphate; format: biochemical, rat; details: 80 μM; 16.7 mM glycerol phosphate, 4 µM rotenone, nigericin

T2 sequence (Q920L2 35-656): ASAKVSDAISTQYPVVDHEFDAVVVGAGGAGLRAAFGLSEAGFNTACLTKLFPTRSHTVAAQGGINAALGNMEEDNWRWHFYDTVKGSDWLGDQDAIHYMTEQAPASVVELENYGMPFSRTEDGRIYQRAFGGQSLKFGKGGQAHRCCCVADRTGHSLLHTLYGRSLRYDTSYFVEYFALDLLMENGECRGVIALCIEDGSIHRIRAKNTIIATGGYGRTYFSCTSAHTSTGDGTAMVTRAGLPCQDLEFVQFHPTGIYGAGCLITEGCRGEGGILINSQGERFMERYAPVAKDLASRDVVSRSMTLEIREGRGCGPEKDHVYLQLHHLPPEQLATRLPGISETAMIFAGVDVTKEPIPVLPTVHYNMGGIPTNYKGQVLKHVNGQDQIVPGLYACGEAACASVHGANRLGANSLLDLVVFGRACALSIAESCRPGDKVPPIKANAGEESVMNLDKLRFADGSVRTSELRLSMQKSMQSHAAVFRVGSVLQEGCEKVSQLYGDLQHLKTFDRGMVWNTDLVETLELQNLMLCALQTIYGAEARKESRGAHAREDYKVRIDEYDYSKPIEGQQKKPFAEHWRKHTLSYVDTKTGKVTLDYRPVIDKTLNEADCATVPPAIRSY
T2 sequence (P21913 31-282 partner): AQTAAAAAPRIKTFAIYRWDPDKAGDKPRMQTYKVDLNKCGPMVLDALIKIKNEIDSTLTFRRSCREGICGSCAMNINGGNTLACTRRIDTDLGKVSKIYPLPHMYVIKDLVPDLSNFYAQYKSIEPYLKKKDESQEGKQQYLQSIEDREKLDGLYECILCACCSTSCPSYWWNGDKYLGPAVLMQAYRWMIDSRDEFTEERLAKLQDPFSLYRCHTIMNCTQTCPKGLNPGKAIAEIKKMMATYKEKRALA
T2 sequence (Q641Z9 30-169 partner limits assumed): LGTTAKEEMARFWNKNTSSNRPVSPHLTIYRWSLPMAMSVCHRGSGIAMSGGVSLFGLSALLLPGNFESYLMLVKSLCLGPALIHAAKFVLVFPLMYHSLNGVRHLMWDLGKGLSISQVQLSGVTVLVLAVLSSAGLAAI
T2 sequence (Q6PCT8 57-159 partner): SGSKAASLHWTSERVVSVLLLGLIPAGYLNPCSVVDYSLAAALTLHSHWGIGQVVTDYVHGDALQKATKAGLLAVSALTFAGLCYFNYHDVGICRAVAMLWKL

SMILES | IC50 (mGPDH) | mGPDH (% change from DMSO) (mGPDH; primary screen, ∼2.5 µM, average of duplicates, 16.7 mM glycerol phosphate, no added calcium) | inhibition at 80 µM (mGPDH) | IIF (% change from DMSO) [3] | IIIQo (% change from DMSO) [4] | lowering of potency versus mGPDH ROS production relative to iGP-1 (mGPDH; ortho- to para- positioning) | IF/DH (% change from DMSO) [1] | IQ H2O2 production with 5 mM Suc (% change at 80 μM) [2] | IQ (% change from DMSO) ([2]; primary screen, ∼2.5 µM, average of duplicates) | ΔΨm with Glu + Mal + Nig (% change at 80 μM) [5] | ΔΨm with Glu + Mal (% change at 80 μM) [5] | ΔΨm (% change from DMSO) ([5]; primary screen, ∼2.5 µM, average of duplicates, glutamate and malate) | ΔΨm with GP + Nig (% change at 80 μM) [6]
O=C(O)CCC(=O)Nc1ccc(-c2nc3ccccc3o2)cc1 [iGP-2] | 20 µM | -12.2% | 50% | 2.1% | 2.5% | – | -2.6% | -57% | 0.759% | 18% | 107% | 0.8% | 1%
c1ccc2[nH]c(-c3ccc(-c4nc5ccccc5[nH]4)cc3)nc2c1 [iGP-10] | – | – | 0% | – | – | – | – | -77% | – | -78% | -58% | – | -78%
CCCCCCNC(=O)CCC(=O)O [iGP-17] | – | – | -6% | – | – | – | – | -1% | – | -1% | -1% | – | 0%
O=C(O)CCC(=O)Nc1ccc(Cl)cc1 [iGP-18] | – | – | -2% | – | – | – | – | 6% | – | -3% | -9% | – | -1%
Cc1ccc(NC(=O)CCC(=O)O)cc1 [iGP-19] | – | – | 1% | – | – | – | – | 7% | – | -2% | -8% | – | -2%
COC(=O)CCC(=O)Nc1ccc(C)cc1 [iGP-20] | – | – | 20% | – | – | – | – | -8% | – | -1% | -3% | – | 0%

The next lines start with results.

IC50 (mGPDH) | mGPDH (% change from DMSO) (mGPDH; primary screen, ∼2.5 µM, average of duplicates, 16.7 mM glycerol phosphate, no added calcium) | inhibition at 80 µM (mGPDH) | IIF (% change from DMSO) [3] | IIIQo (% change from DMSO) [4] | lowering of potency versus mGPDH ROS production relative to iGP-1 (mGPDH; ortho- to para- positioning) | SMILES | IF/DH (% change from DMSO) [1] | IQ H2O2 production with 5 mM Suc (% change at 80 μM) [2] | IQ (% change from DMSO) ([2]; primary screen, ∼2.5 µM, average of duplicates) | ΔΨm with Glu + Mal + Nig (% change at 80 μM) [5] | ΔΨm with Glu + Mal (% change at 80 μM) [5] | ΔΨm (% change from DMSO) ([5]; primary screen, ∼2.5 µM, average of duplicates, glutamate and malate) | ΔΨm with GP + Nig (% change at 80 μM) [6]
50 µM | – | 44% | – | – | more than 5 fold | O=C(O)CCC(=O)Nc1cccc(-c2nc3ccccc3[nH]2)c1 [iGP-8] | – | -14% | – | 1% | 3% | – | -7%
– | – | 2% | – | – | – | CCCC(=O)Nc1ccc(-c2nc3cc4ccccc4cc3[nH]2)cc1 [iGP-9] | – | -1% | – | 5% | 26% | – | 5%
– | – | 5% | – | – | – | C=C(C)C(=O)Nc1ccc(-c2nc3ccccc3[nH]2)cc1 [iGP-11] | – | -54% | – | -1% | 54% | – | 1%
– | – | 28% | – | – | – | CC(=O)Nc1ccc(-c2nc3ccccc3[nH]2)cc1 [iGP-12] | – | -21% | – | 2% | 10% | – | 2%
80 µM | – | 37% | – | – | – | O=C(Nc1ccc(-c2nc3ccccc3[nH]2)cc1)c1ccco1 [iGP-13] | – | -82% | – | 10% | 23% | – | 13%
– | – | -11% | – | – | – | CCOc1ccc(C(=O)Nc2ccc(-c3nc4ccccc4[nH]3)cc2)cc1 [iGP-15] | – | -15% | – | -42% | 10% | – | -25%
– | – | 7% | – | – | – | O=C(Nc1ccc(-c2nc3ccccc3[nH]2)cc1)C1CC1 [iGP-16] | – | -24% | – | 1% | 4% | – | 2%
